Earlier results in PubChem BioAssay AID1259409 (Chemical Carcinogenesis Research Information System (CCRIS), 2018).

System: rodent chemically induced tumor inhibition, incidence and multiplicity
Test: CCRIS tumor inhibitor studies
Conditions: Dose [Inhibitor]: 0, Route [Inhibitor]: ORAL, Promoter: NONE USED

## CN1C(C(=O)Nc2ccccn2)=C(O)c2ccccc2S1(=O)=O
Carcinogen: 2-ACETYLAMINOFLUORENE, 53-96-3, 130 PPM IN DIET FOR 18 WK BEGINNING 1 WK PRIOR TO CARCINOGEN TREATMENT (STUDY DURATION: 36 WK), Species: RAT, Strain/Sex: ACI/N/MALE, Target Tissue: Type of Lesion: LIVER: TUMOR, Dose [Carcinogen]: 200 PPM IN DIET FOR 16 WK
  tumour outcome (control, treated, inhibition, significance): 10/10 (100%), 1/10 (10%), 90%, p=0.00006
Carcinogen: 4-(METHYLNITROSAMINO)-1-(3-PYRIDYL-1-BUTANONE, 64091-91-4, 25 MG/KG IN DIET FOR 25 WK BEGINNING 2 WK PRIOR TO CARCINOGEN TREATMENT (STUDY DURATION: 25 WK), Species: MOUSE, Strain/Sex: STRAIN-A/FEMALE, Target Tissue: Type of Lesion: FORESTOMACH: TUMOR, Dose [Carcinogen]: 9.1 MG IN DRINKING WATER FOR 7 WK
  tumour outcome (control, treated, inhibition, significance): 7/25 (28%), 2/24 (8%), 71%, not significant
Carcinogen: 7,12-DIMETHYLBENZ[A]ANTHRACENE, 57-97-6, 0.01% IN HIGH-FAT (20% SOYBEAN OIL) DIET FOR 20 WK BEGINNING 1 WK POST CARCINOGEN DOSE (STUDY DURATION: 21 WK), Species: RAT, Strain/Sex: SPRAGUE-DAWLEY/FEMALE, Target Tissue: Type of Lesion: MAMMARY GLAND: ADENOCARCINOMA, Dose [Carcinogen]: 5 MG ONCE
  tumour outcome (control, treated, inhibition, significance): 17/20 (85%), 19/21 (90%), -6%, not significant
Carcinogen: 7,12-DIMETHYLBENZ[A]ANTHRACENE, 57-97-6, 0.01% IN LOW-FAT (0.5% SOYBEAN OIL) DIET FOR 20 WK BEGINNING 1 WK POST CARCINOGEN DOSE (STUDY DURATION: 21 WK), Species: RAT, Strain/Sex: SPRAGUE-DAWLEY/FEMALE, Target Tissue: Type of Lesion: MAMMARY GLAND: ADENOCARCINOMA, Dose [Carcinogen]: 5 MG ONCE
  tumour outcome (control, treated, inhibition, significance): 10/18 (56%), 9/20 (45%), 20%, not significant
Carcinogen: AZOXYMETHANE, 25843-45-2, 25 PPM IN DIET BEGINNING 1 WK POST CARCINOGEN DOSE FOR DURATION OF STUDY (STUDY DURATION: 56 WK), Species: RAT, Strain/Sex: F344/MALE, Target Tissue: Type of Lesion: COLON: ADENOCARCINOMA, Dose [Carcinogen]: 29.6 MG/KG IN NORMAL SALINE ONCE
  tumour outcome (control, treated, inhibition, significance): 17/30 (57%), 10/30 (33%), 41%, not calculated
Carcinogen: AZOXYMETHANE, 25843-45-2, 25 PPM IN DIET BEGINNING 1 WK POST CARCINOGEN DOSE FOR DURATION OF STUDY (STUDY DURATION: 56 WK), Species: RAT, Strain/Sex: F344/MALE, Target Tissue: Type of Lesion: COLON: ADENOMA, Dose [Carcinogen]: 29.6 MG/KG IN NORMAL SALINE ONCE
  tumour outcome (control, treated, inhibition, significance): 11/30 (37%), 16/30 (53%), -43%, not calculated
Carcinogen: AZOXYMETHANE, 25843-45-2, 25 PPM IN DIET BEGINNING 1 WK POST CARCINOGEN DOSE FOR DURATION OF STUDY (STUDY DURATION: 56 WK), Species: RAT, Strain/Sex: F344/MALE, Target Tissue: Type of Lesion: SMALL INTESTINE: ADENOCARCINOMA, Dose [Carcinogen]: 29.6 MG/KG IN NORMAL SALINE ONCE
  tumour outcome (control, treated, inhibition, significance): 10/30 (33%), 7/30 (23%), 30%, not calculated
Carcinogen: AZOXYMETHANE, 25843-45-2, 25 PPM IN DIET BEGINNING 1 WK POST CARCINOGEN DOSE FOR DURATION OF STUDY (STUDY DURATION: 56 WK), Species: RAT, Strain/Sex: F344/MALE, Target Tissue: Type of Lesion: SMALL INTESTINE: ADENOMA, Dose [Carcinogen]: 29.6 MG/KG IN NORMAL SALINE ONCE
  tumour outcome (control, treated, inhibition, significance): 1/30 (3%), 0/30 (0%), 100%, not significant
Carcinogen: AZOXYMETHANE, 25843-45-2, 75 PPM IN DIET BEGINNING 1 WK POST CARCINOGEN DOSE FOR DURATION OF STUDY (STUDY DURATION: 56 WK), Species: RAT, Strain/Sex: F344/MALE, Target Tissue: Type of Lesion: COLON: ADENOCARCINOMA, Dose [Carcinogen]: 29.6 MG/KG IN NORMAL SALINE ONCE
  tumour outcome (control, treated, inhibition, significance): 17/30 (57%), 6/30 (20%), 65%, p<0.05
Carcinogen: AZOXYMETHANE, 25843-45-2, 75 PPM IN DIET BEGINNING 1 WK POST CARCINOGEN DOSE FOR DURATION OF STUDY (STUDY DURATION: 56 WK), Species: RAT, Strain/Sex: F344/MALE, Target Tissue: Type of Lesion: COLON: ADENOMA, Dose [Carcinogen]: 29.6 MG/KG IN NORMAL SALINE ONCE
  tumour outcome (control, treated, inhibition, significance): 11/30 (37%), 14/30 (47%), -27%, not calculated
Carcinogen: AZOXYMETHANE, 25843-45-2, 75 PPM IN DIET BEGINNING 1 WK POST CARCINOGEN DOSE FOR DURATION OF STUDY (STUDY DURATION: 56 WK), Species: RAT, Strain/Sex: F344/MALE, Target Tissue: Type of Lesion: SMALL INTESTINE: ADENOCARCINOMA, Dose [Carcinogen]: 29.6 MG/KG IN NORMAL SALINE ONCE
  tumour outcome (control, treated, inhibition, significance): 10/30 (33%), 9/30 (30%), 10%, not calculated
Carcinogen: AZOXYMETHANE, 25843-45-2, 75 PPM IN DIET BEGINNING 1 WK POST CARCINOGEN DOSE FOR DURATION OF STUDY (STUDY DURATION: 56 WK), Species: RAT, Strain/Sex: F344/MALE, Target Tissue: Type of Lesion: SMALL INTESTINE: ADENOMA, Dose [Carcinogen]: 29.6 MG/KG IN NORMAL SALINE ONCE
  tumour outcome (control, treated, inhibition, significance): 1/30 (3%), 2/30 (7%), -133%, not calculated
Carcinogen: AZOXYMETHANE, 25843-45-2, 75 PPM IN THE DIET FOR 28 WK BEGINNING 2 WK PRIOR TO CARCINOGEN TREATMENT (STUDY DURATION: 30 WK), Species: RAT, Strain/Sex: F344/MALE, Target Tissue: Type of Lesion: COLON: TUMOR, Dose [Carcinogen]: 15 MG/KG BW 1/WK FOR 2 WK
  tumour outcome (control, treated, inhibition, significance): 20/43 (47%), 19/56 (34%), 28%, p<0.05
Carcinogen: AZOXYMETHANE, 25843-45-2, 150 PPM IN DIET BEGINNING 1 WK POST CARCINOGEN DOSE FOR DURATION OF STUDY (STUDY DURATION: 56 WK), Species: RAT, Strain/Sex: F344/MALE, Target Tissue: Type of Lesion: COLON: ADENOCARCINOMA, Dose [Carcinogen]: 29.6 MG/KG IN NORMAL SALINE ONCE
  tumour outcome (control, treated, inhibition, significance): 17/30 (57%), 7/30 (23%), 59%, p<0.05
